Reference: patent publication US20240182945A1, “PRODUCTS FOR REGULATION OF EUKARYOTIC AND MICROBIAL CELLS GROWTH” (priority 2021, published 2024)
Starred links: 1 amine or outer side, 2 acyl side, 3 side chain; linkers in the order of their positions; H or OH if unused. Positions of bridges follow the written chain, without caps; N, C: chain ends. Non-standard residues stand in square brackets, D forms with d. Residues, ends and D or L forms follow the SMILES beside them. *: point of attachment. hTyr(3S-OH,4S-OH,3'-OSO3H) = N[C@H](C(=O)O)[C@H](O)[C@@H](O)c1ccc(O)c(OS(=O)(=O)O)c1; pTerphenylCO(4''-OnC5H11) = CCCCCOc1ccc(-c2ccc(-c3ccc(C(=O)*)cc3)cc2)cc1; Orn(4R-OH,5R-OH) = O=C([C@H](C[C@@H](O)[C@@H](O)N[*:3])N[*:1])[*:2]; hTyr(3S-OH,4S-OH) = N[C@H](C(=O)O)[C@H](O)[C@@H](O)c1ccc(O)cc1; Pro(3S-OH,4S-Me) = C[C@H]1CN[C@H](C(=O)O)[C@H]1O; X1 = CCCCCOc1ccc(-c2cc(-c3ccc(C(=O)*)cc3)no2)cc1; Gln(3R-OH) = NC(=O)C[C@@H](O)[C@H](N)C(=O)O; Hyp = O=C(O)[C@@H]1C[C@@H](O)CN1

Tested on: C. albicans, non-albicans Candida spp. Aspergillus spp. in oral swabs from patients with oral candidiasis
Assay: Signs of fungal growth on 12 well plate test system supplemented with antifungal antibiotics
Format: cell-based
Details: naked eye examination, samples resistant to the antibiotic
Protocol: Oral swabs (n=6) from patients with confirmed oral candidiasis caused by C. albicans, non-albicans Candida spp. Aspergillus spp., were dissolved with PBS and 0.1 uL were plated on 12 well plate test system filled with Mixed Medium 1 (see above), Mixed Medium 2 (Sabouraud agar+Potato Dextrose Agar+vitamins B12+B7) (MM2), Sabouraud agar (SA), Potato Dextrose Agar (PDA), Sabouraud's Heart Infusion (SABHI) agar. 11 wells were filled with media supplemented with antibiotics (taken at mean concentration of each antibiotic achieved in lungs at different timpoints post drug administration)—Nystatin, Amphotericin B, Clotrimazole, Fluconazole, Isavuconazole, Terbinafin, Posaconazole, Voriconazole, Anidulafungin, Caspofungin, Micafungin. One well was antibiotic free.
Plates was incubated at 30 C and the analysis of the presence/absence of microbial growth was monitored every 15 minutes from […] to 5 h, then hourly from 5 h to 8 h and then at 18 and 24 h post plating with a naked eye.
Three methods (algorithms) how to analyze fungal growth were used.
Method (Algorithm) #1. Lab technician, analyzed the appearance of fungal growth by comparing the signs of fungal growth in each well supplemented with antibiotic(s) at certain timepoint, with the signs of funal growth in the same well at previous time point(s).
Method (Algorithm)#2. Lab technician analyzed the appearance of fungal growth by comparing the signs of fungal growth in each well supplemented with antibiotic(s) with fungal growth in antibiotic-free control
Method (Algorithm) #3. Lab technician analyzed the absence of fungal growth in the wells in fixed time period of 3.5 h; 5 h and 24 h.

[1] = Method (Algorithm) #1, MM1 medium
[2] = Method (Algorithm) #1, MM2 medium
[3] = Method (Algorithm) #1, PDA medium
[4] = Method (Algorithm) #1, SA (Sabouraud agar)
[5] = Method (Algorithm) #1, SABHI medium
[6] = Method (Algorithm) #2, MM1 medium
[7] = Method (Algorithm) #2, MM2 medium
[8] = Method (Algorithm) #2, PDA medium
[9] = Method (Algorithm) #2, SA (Sabouraud agar)
[10] = Method (Algorithm) #2, SABHI medium

## C[C@@H](c1ncncc1F)[C@](O)(Cn1cncn1)c1ccc(F)cc1F [Voriconazole]
[1]
  Mean hour at which fungal growth became visible on the wells supplemented with a certain antibiotic: 4 h
[2]
  Mean hour at which fungal growth became visible on the wells supplemented with a certain antibiotic: 4.5 h
[3]
  Mean hour at which fungal growth became visible on the wells supplemented with a certain antibiotic: 5.5 h
[4]
  Mean hour at which fungal growth became visible on the wells supplemented with a certain antibiotic: 4.5 h
[5]
  Mean hour at which fungal growth became visible on the wells supplemented with a certain antibiotic: 5.5 h
[6]
  Mean hour at which fungal growth became visible on the wells supplemented with a certain antibiotic: 4.5 h
[7]
  Mean hour at which fungal growth became visible on the wells supplemented with a certain antibiotic: 4.5 h
[8]
  Mean hour at which fungal growth became visible on the wells supplemented with a certain antibiotic: 6.5 h
[9]
  Mean hour at which fungal growth became visible on the wells supplemented with a certain antibiotic: 8 h
[10]
  Mean hour at which fungal growth became visible on the wells supplemented with a certain antibiotic: 7 h

## CCCCCOc1ccc(-c2ccc(-c3ccc(C(=O)N[C@H]4C[C@@H](O)[C@@H](O)NC(=O)[C@@H]5[C@@H](O)[C@@H](C)CN5C(=O)[C@H]([C@@H](C)O)NC(=O)[C@H]([C@H](O)[C@@H](O)c5ccc(O)cc5)NC(=O)[C@@H]5C[C@@H](O)CN5C(=O)[C@H]([C@@H](C)O)NC4=O)cc3)cc2)cc1 [Anidulafungin] ({pTerphenylCO(4''-OnC5H11)}-[Orn(4R-OH,5R-OH)]T[Hyp][hTyr(3S-OH,4S-OH)]T[Pro(3S-OH,4S-Me)]; lactam 1-C)
[1]
  Mean hour at which fungal growth became visible on the wells supplemented with a certain antibiotic: 4 h
[2]
  Mean hour at which fungal growth became visible on the wells supplemented with a certain antibiotic: 5 h
[3]
  Mean hour at which fungal growth became visible on the wells supplemented with a certain antibiotic: 6.5 h
[4]
  Mean hour at which fungal growth became visible on the wells supplemented with a certain antibiotic: 5.5 h
[5]
  Mean hour at which fungal growth became visible on the wells supplemented with a certain antibiotic: 6.5 h
[6]
  Mean hour at which fungal growth became visible on the wells supplemented with a certain antibiotic: 5.5 h
[7]
  Mean hour at which fungal growth became visible on the wells supplemented with a certain antibiotic: 4.5 h
[8]
  Mean hour at which fungal growth became visible on the wells supplemented with a certain antibiotic: 7.5 h
[9]
  Mean hour at which fungal growth became visible on the wells supplemented with a certain antibiotic: 6.5 h
[10]
  Mean hour at which fungal growth became visible on the wells supplemented with a certain antibiotic: 8.5 h

## C[C@@H](c1nc(-c2ccc(C#N)cc2)cs1)[C@](O)(Cn1cncn1)c1cc(F)ccc1F [Isavuconazole]
[1]
  Mean hour at which fungal growth became visible on the wells supplemented with a certain antibiotic: 5 h
[2]
  Mean hour at which fungal growth became visible on the wells supplemented with a certain antibiotic: 4.5 h
[3]
  Mean hour at which fungal growth became visible on the wells supplemented with a certain antibiotic: 6 h
[4]
  Mean hour at which fungal growth became visible on the wells supplemented with a certain antibiotic: 6.5 h
[5]
  Mean hour at which fungal growth became visible on the wells supplemented with a certain antibiotic: 7 h
[6]
  Mean hour at which fungal growth became visible on the wells supplemented with a certain antibiotic: 6 h
[7]
  Mean hour at which fungal growth became visible on the wells supplemented with a certain antibiotic: 5.5 h
[8]
  Mean hour at which fungal growth became visible on the wells supplemented with a certain antibiotic: 7.5 h
[9]
  Mean hour at which fungal growth became visible on the wells supplemented with a certain antibiotic: 7.5 h
[10]
  Mean hour at which fungal growth became visible on the wells supplemented with a certain antibiotic: 8.5 h

## C[C@@H]1[C@H](O)[C@@H](C)/C=C/C=C/C=C/C=C/C=C/C=C/C=C/[C@H](O[C@@H]2O[C@H](C)[C@@H](O)[C@H](N)[C@@H]2O)C[C@@H]2O[C@](O)(C[C@@H](O)C[C@@H](O)[C@H](O)CC[C@@H](O)C[C@@H](O)CC(=O)O[C@H]1C)C[C@H](O)[C@H]2C(=O)O [Amphotericin B]
[1]
  Mean hour at which fungal growth became visible on the wells supplemented with a certain antibiotic: 3 h
[2]
  Mean hour at which fungal growth became visible on the wells supplemented with a certain antibiotic: 5 h
[3]
  Mean hour at which fungal growth became visible on the wells supplemented with a certain antibiotic: 4.5 h
[4]
  Mean hour at which fungal growth became visible on the wells supplemented with a certain antibiotic: 6.5 h
[5]
  Mean hour at which fungal growth became visible on the wells supplemented with a certain antibiotic: 6 h
[6]
  Mean hour at which fungal growth became visible on the wells supplemented with a certain antibiotic: 5 h
[7]
  Mean hour at which fungal growth became visible on the wells supplemented with a certain antibiotic: 5 h
[8]
  Mean hour at which fungal growth became visible on the wells supplemented with a certain antibiotic: 7.5 h
[9]
  Mean hour at which fungal growth became visible on the wells supplemented with a certain antibiotic: 7 h
[10]
  Mean hour at which fungal growth became visible on the wells supplemented with a certain antibiotic: 8 h

## CCCCCOc1ccc(-c2cc(-c3ccc(C(=O)N[C@H]4C[C@@H](O)[C@@H](O)NC(=O)[C@@H]5[C@@H](O)[C@@H](C)CN5C(=O)[C@H]([C@H](O)CC(N)=O)NC(=O)[C@H]([C@H](O)[C@@H](O)c5ccc(O)c(OS(=O)(=O)O)c5)NC(=O)[C@@H]5C[C@@H](O)CN5C(=O)[C@H]([C@@H](C)O)NC4=O)cc3)no2)cc1 [Micafungin] (X1-[Orn(4R-OH,5R-OH)]T[Hyp][hTyr(3S-OH,4S-OH,3'-OSO3H)][Gln(3R-OH)][Pro(3S-OH,4S-Me)]; lactam 1-C)
[1]
  Mean hour at which fungal growth became visible on the wells supplemented with a certain antibiotic: 4.5 h
[2]
  Mean hour at which fungal growth became visible on the wells supplemented with a certain antibiotic: 5 h
[3]
  Mean hour at which fungal growth became visible on the wells supplemented with a certain antibiotic: 6 h
[4]
  Mean hour at which fungal growth became visible on the wells supplemented with a certain antibiotic: 6 h
[5]
  Mean hour at which fungal growth became visible on the wells supplemented with a certain antibiotic: 5 h
[6]
  Mean hour at which fungal growth became visible on the wells supplemented with a certain antibiotic: 4.5 h
[7]
  Mean hour at which fungal growth became visible on the wells supplemented with a certain antibiotic: 5.5 h
[8]
  Mean hour at which fungal growth became visible on the wells supplemented with a certain antibiotic: 7.5 h
[9]
  Mean hour at which fungal growth became visible on the wells supplemented with a certain antibiotic: 8 h
[10]
  Mean hour at which fungal growth became visible on the wells supplemented with a certain antibiotic: 6.5 h

## C[C@@H]1[C@H](O)[C@@H](C)/C=C/C=C/CC/C=C/C=C/C=C/C=C/C(O[C@H]2O[C@H](C)[C@@H](O)[C@H](N)[C@@H]2O)CC2O[C@](O)(CC(O)C(O)CCC(O)CC(O)CC(O)CC(=O)O[C@H]1C)CC(O)C2C(=O)O (stereo partly drawn) [Nystatin]
[1]
  Mean hour at which fungal growth became visible on the wells supplemented with a certain antibiotic: 4 h
[2]
  Mean hour at which fungal growth became visible on the wells supplemented with a certain antibiotic: 4.5 h
[3]
  Mean hour at which fungal growth became visible on the wells supplemented with a certain antibiotic: 5 h
[4]
  Mean hour at which fungal growth became visible on the wells supplemented with a certain antibiotic: 6 h
[5]
  Mean hour at which fungal growth became visible on the wells supplemented with a certain antibiotic: 5.5 h
[6]
  Mean hour at which fungal growth became visible on the wells supplemented with a certain antibiotic: 4.5 h
[7]
  Mean hour at which fungal growth became visible on the wells supplemented with a certain antibiotic: 6 h
[8]
  Mean hour at which fungal growth became visible on the wells supplemented with a certain antibiotic: 6.5 h
[9]
  Mean hour at which fungal growth became visible on the wells supplemented with a certain antibiotic: 6 h
[10]
  Mean hour at which fungal growth became visible on the wells supplemented with a certain antibiotic: 7.5 h

## Clc1ccccc1C(c1ccccc1)(c1ccccc1)n1ccnc1 [Clotrimazole]
[1]
  Mean hour at which fungal growth became visible on the wells supplemented with a certain antibiotic: 3.5 h
[2]
  Mean hour at which fungal growth became visible on the wells supplemented with a certain antibiotic: 4.5 h
[3]
  Mean hour at which fungal growth became visible on the wells supplemented with a certain antibiotic: 7.5 h
[4]
  Mean hour at which fungal growth became visible on the wells supplemented with a certain antibiotic: 5 h
[5]
  Mean hour at which fungal growth became visible on the wells supplemented with a certain antibiotic: 6.5 h
[6]
  Mean hour at which fungal growth became visible on the wells supplemented with a certain antibiotic: 4.5 h
[7]
  Mean hour at which fungal growth became visible on the wells supplemented with a certain antibiotic: 6.5 h
[8]
  Mean hour at which fungal growth became visible on the wells supplemented with a certain antibiotic: 8.5 h
[9]
  Mean hour at which fungal growth became visible on the wells supplemented with a certain antibiotic: 7.5 h
[10]
  Mean hour at which fungal growth became visible on the wells supplemented with a certain antibiotic: 6.5 h

## CC[C@@H]([C@H](C)O)n1ncn(-c2ccc(N3CCN(c4ccc(OC[C@@H]5CO[C@@](Cn6cncn6)(c6ccc(F)cc6F)C5)cc4)CC3)cc2)c1=O [Posaconazole]
[1]
  Mean hour at which fungal growth became visible on the wells supplemented with a certain antibiotic: 3.5 h
[2]
  Mean hour at which fungal growth became visible on the wells supplemented with a certain antibiotic: 4.5 h
[3]
  Mean hour at which fungal growth became visible on the wells supplemented with a certain antibiotic: 5 h
[4]
  Mean hour at which fungal growth became visible on the wells supplemented with a certain antibiotic: 5 h
[5]
  Mean hour at which fungal growth became visible on the wells supplemented with a certain antibiotic: 5.5 h
[6]
  Mean hour at which fungal growth became visible on the wells supplemented with a certain antibiotic: 4.5 h
[7]
  Mean hour at which fungal growth became visible on the wells supplemented with a certain antibiotic: 5 h
[8]
  Mean hour at which fungal growth became visible on the wells supplemented with a certain antibiotic: 8.5 h
[9]
  Mean hour at which fungal growth became visible on the wells supplemented with a certain antibiotic: 7 h
[10]
  Mean hour at which fungal growth became visible on the wells supplemented with a certain antibiotic: 7 h

## CC[C@H](C)C[C@H](C)CCCCCCCCC(=O)N[C@H]1C[C@@H](O)[C@@H](NCCN)NC(=O)[C@@H]2[C@@H](O)CCN2C(=O)[C@H]([C@H](O)CCN)NC(=O)[C@H]([C@H](O)[C@@H](O)c2ccc(O)cc2)NC(=O)[C@@H]2C[C@@H](O)CN2C(=O)[C@H]([C@@H](C)O)NC1=O [Caspofungin]
[1]
  Mean hour at which fungal growth became visible on the wells supplemented with a certain antibiotic: 3.5 h
[2]
  Mean hour at which fungal growth became visible on the wells supplemented with a certain antibiotic: 5 h
[3]
  Mean hour at which fungal growth became visible on the wells supplemented with a certain antibiotic: 6 h
[4]
  Mean hour at which fungal growth became visible on the wells supplemented with a certain antibiotic: 5.5 h
[5]
  Mean hour at which fungal growth became visible on the wells supplemented with a certain antibiotic: 7 h
[6]
  Mean hour at which fungal growth became visible on the wells supplemented with a certain antibiotic: 6 h
[7]
  Mean hour at which fungal growth became visible on the wells supplemented with a certain antibiotic: 5.5 h
[8]
  Mean hour at which fungal growth became visible on the wells supplemented with a certain antibiotic: 8 h
[9]
  Mean hour at which fungal growth became visible on the wells supplemented with a certain antibiotic: 7.5 h
[10]
  Mean hour at which fungal growth became visible on the wells supplemented with a certain antibiotic: 8.5 h
